This is an account of results in patent publication US4543256A, “(-)-10,1L Methylenedioxy-N-N-propylnoraporphine and methods employing it for inhibiting the effects of epileptic seizures and for prevention and treatment of duodenal ulcers” (Northeastern University, priority 1982, dated 1985).

Counter-ions that a name gives are not always drawn.

This assay concerns rats. The experiment in a line: Locomotor (general motor) activity, electronic activity monitor. The class given is in vivo, rat (male Sprague-Dawley). The procedure:
Male Sprague-Dawley (Charles River Labs.) rats (initially 175-200 g) were housed four per cage, with free access to food and water, under controlled lighting (on 7:00 a.m. to 7:00 p.m.), constant temperature 21°-23° C. and controlled humidity (40-50%). Aporphines were administered, as described below, freshly dissolved in 1 mM citric acid mixed with 0.9% (w/v) saline (1:4, vols.); this solvent was also used as a vehicle ("placebo") control. Haloperidol was given in the same medium; 2-diethyl aminoethyl-2,2 diphenylvalerate HCl (SKF-525A) was given in saline.
Locomotor activity was evaluated by use of a printing electronic activity monitor (EAM, Stoelting Co., Chicago, IL) within a sound-attenuated chamber, typically for 60 min., as described previously (Stewart, Campbell, Sperk and Baldessarini, 1979, Psychopharmacology 60 281-289; Campbell and Baldessarini, 1981a, Psychopharmacology 73:219-222.
In all experiments except those which evaluated the time-course of drug effects, rats were given an injection of vehicle and then allowed to rest for 15 min. to adapt to nonspecific arousal effects, prior to a second injection of test agent (or placebo) and immediate behavioral testing. Behavioral data were evaluated by Student's t-test and are always expressed as mean ±SEM.
Data are mean values ±SEM (N=4 to 8 rats per condition). Animals were pretreated with SKF-525A (40 mg/kg, i.p.) or its vehicle 30 min before MDO-NPA (in the doses noted, from 0 to 3 mg/kg, i.p.). Activity was then monitored electronically for an hour after the low doses of MDO-NPA (data in counts/hour), or rated for stereotypy every 10 min for an hour after higher doses. N.D. indicates "not determined." (*) Indicates a significant difference by t-test between control and oxidase inhibitor-pretreated rats (p<0.01).
Data are mean values ±SEM (N=3 to 6 rats per condition) for effects of seven aporphine compounds (R=substituents, keyed to the structure above). Full chemical names for all compounds are provided in Methods. Ratings are expressed as percent of the maximum possible score (100%)=18.0) of stereotypy (Placebo-injected controls yielded scores of 4.4±2.5%); and as the percent of control locomotor activity (100%=430±86 counts/hr). Data are provided for a dose of 10 mg/kg (i.p.), although doses of 1 and 5 mg/kg were also tested.

As for `CCCN1CCc2cccc3c2[C@H]1Cc1ccc2c(c1-3)OCO2` [MDO-NPA, (-) 10, 11-methylenedioxy-N-n-propylnoraporphine-HCl], where the note is “Rattus norvegicus, ip, read-out: dose producing increases in general motor activity”, the minimal effective dose was over 2 µmol/kg. For the same molecule, the Activity was 425 ± 40 counts/hour (SKF-525A 40 mg/kg i.p. 30 min before MDO-NPA 0.05 mg/kg i.p., p<0.01 vs control); 415 ± 29 counts/hour (SKF-525A 40 mg/kg i.p. 30 min before MDO-NPA 0.10 mg/kg i.p., p<0.01 vs control); 410 ± 32 counts/hour (SKF-525A 40 mg/kg i.p. 30 min before MDO-NPA 0.20 mg/kg i.p., p<0.01 vs control); 440 ± 38 counts/hour (SKF-525A 40 mg/kg i.p. 30 min before MDO-NPA 0.30 mg/kg i.p.); 190 ± 20 counts/hour (control (vehicle pretreated), MDO-NPA 0.05 mg/kg i.p.); 130 ± 30 counts/hour (control (vehicle pretreated), MDO-NPA 0.10 mg/kg i.p.). For the same molecule, the Activity is, setting by setting: (control (vehicle pretreated), MDO-NPA 0.20 mg/kg i.p.) 260 ± 33 counts/hour; (control (vehicle pretreated), MDO-NPA 0.30 mg/kg i.p.) 435 ± 29 counts/hour. The “dose of maximum effect, inhibition of locomotor activity” value (i.p., about 0.1 mg/kg) was found to be 0.3 µmol/kg.
